The values below come from US9776979B2, “EBI2 modulators” (Sanford-Burnham Medical Research Institute, priority 2013, dated 2017).

In the assay the target is EBI2 (Homo sapiens, UniProt P32249). Put plainly: Cell-based luminescent assay (EBI2 modulation). The following applies: cell-based luminescence; 7a,25-OHC final assay concentration 80 nM; 60 minutes incubation; read-out: IC50. In short, it runs like this: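 Cells plated overnight at 37° C, then exposed to compound at 4-5 uM final with 80 nM 7a,25-OHC agonist for 60 min at 37° C. Luminescence read after 60 min detection at 25° C in the dark; values normalized to neutral and stimulator controls and plate-pattern corrected.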
Chain of EBI2 (P32249 whole entry): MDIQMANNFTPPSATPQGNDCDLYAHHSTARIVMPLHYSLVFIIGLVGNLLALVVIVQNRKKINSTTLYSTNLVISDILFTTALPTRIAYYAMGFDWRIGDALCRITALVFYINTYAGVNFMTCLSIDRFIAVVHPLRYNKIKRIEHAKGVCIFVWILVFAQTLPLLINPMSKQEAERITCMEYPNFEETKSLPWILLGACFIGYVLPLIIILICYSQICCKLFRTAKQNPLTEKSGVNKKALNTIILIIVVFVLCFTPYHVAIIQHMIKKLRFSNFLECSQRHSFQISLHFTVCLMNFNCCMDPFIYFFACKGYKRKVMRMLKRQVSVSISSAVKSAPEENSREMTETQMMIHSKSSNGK
Broadly, the IC50 is the concentration that gives 50% inhibition. For “3-(4-bromophenyl)-1-{4-[(4-chlorophenyl)carbonyl]piperazinyl}prop-2-yn-1-one [Compound C55]”, the half-maximal inhibitory concentration (IC50) was less than 100 nM.

For the compound `O=C(c1ccc(F)cc1)N1CCN(C(=O)c2cc3cc(Cl)ccc3[nH]2)CC1` [Compound C119, 5-chloroindol-2-yl 4-[(4-fluorophenyl)carbonyl]piperazinyl ketone], the 50% inhibitory concentration (IC50) is less than 100 nM.

Consider “3-(4-methylphenyl)-1-(4-{[4-(trifluoromethyl)phenyl]methyl}piperazinyl)prop-2-yn-1-one [Compound C346]”, for which the IC50 was less than 100 nM.

As to “4-(diphenylmethyl)piperazinyl 5-hydroxyindol-2-yl ketone [Compound C348]”, the concentration for half-maximal inhibition (IC50) was less than 100 nM.

As for “(2E)-3-phenyl-1-[4-benzylpiperazinyl]prop-2-en-1-one [Compound C337]”, the half-inhibitory concentration (IC50) was less than 100 nM.

Consider “(2E)-1-[4-(diphenylmethyl)piperazinyl]-3-(4-bromophenyl)prop-2-en-1-one [Compound C27]”, for which the concentration for half-maximal inhibition (IC50) was less than 100 nM.

On to `O=C(/C=C/c1ccccc1Cl)N1CCN(C(c2ccccc2)c2ccccc2)CC1` [Compound C320, (2E)-1-[4-(diphenylmethyl)piperazinyl]-3-(2-chlorophenyl)prop-2-en-1-one], for which the half-maximal inhibitory concentration (IC50) was less than 100 nM.

For `O=C(c1cc2cc(Cl)ccc2[nH]1)N1CCN(S(=O)(=O)CCc2ccccc2)CC1` [Compound C88, 5-chloroindol-2-yl 4-[(2-phenylethyl)sulfonyl]piperazinyl ketone], the IC50 is less than 100 nM.

As to `O=C(/C=C/c1ccc(Cl)c(Cl)c1)N1CCN(S(=O)(=O)c2ccccc2)CC1` [Compound C230, (2E)-3-(3,4-dichlorophenyl)-1-[4-(phenylsulfonyl)piperazinyl]prop-2-en-1-one], the IC50 was less than 100 nM.

Regarding `COc1ccc2cc(C(=O)N3CCN(C(c4ccccc4)c4ccccc4)CC3)[nH]c2c1` [Compound C304, 4-(diphenylmethyl)piperazinyl 6-methoxyindol-2-yl ketone], the IC50 was less than 100 nM.

Regarding `O=C(c1cc2ccc(Cl)cc2[nH]1)N1CCN(C(c2ccccc2)c2ccccc2)CC1` [Compound C104, 4-(diphenylmethyl)piperazinyl 6-chloroindol-2-yl ketone], the half-inhibitory concentration (IC50) was less than 100 nM.

Turning to `O=C(c1cc2ccc(Cl)cc2s1)N1CCN(C(c2ccccc2)c2ccccc2)CC1` [Compound C45, 4-(diphenylmethyl)piperazinyl 6-chlorobenzo[b]thiophen-2-yl ketone], the IC50 was less than 100 nM.

Regarding `O=C(C#Cc1cccc(Cl)c1Cl)N1CCN(Cc2ccc(F)cc2)CC1` [Compound C262, 3-(2,3-dichlorophenyl)-1-{4-[(4-fluorophenyl)methyl]piperazinyl}prop-2-yn-1-one], the 50% inhibitory concentration (IC50) was less than 100 nM.

In the case of `COc1ccc(CN2CCN(C(=O)/C=C/c3ccccc3)CC2)cc1` [Compound C332, (2E)-1-{4-[(4-methoxyphenyl)methyl]piperazinyl}-3-phenylprop-2-en-1-one], the IC50 was less than 100 nM.

In the case of “(2E)-1-(4-{[4-(tert-butyl)phenyl]sulfonyl}piperazinyl)-3-(4-bromophenyl)prop-2-en-1-one [Compound C150]”, the IC50 is less than 100 nM.

Regarding `O=C(C#Cc1ccc(C(F)(F)F)cc1)N1CCN(C(=O)c2ccc(Cl)cc2)CC1` [Compound C60, 1-{4-[(4-chlorophenyl)carbonyl]piperazinyl}-3-[4-(trifluoromethyl)phenyl]prop-2-yn-1-one], the IC50 was less than 100 nM.
